Values after ≈ are worked out from the molar mass of the structure shown. Read-outs that look alike come from different tables or passages of the source.
Key:
[1] = tested on: mice; test: PBQ-Induced Algesia; format: in vivo; conditions: Mus musculus, po, read-out: ED50 (reduction of number of stretches by 50%)
Protocol: An irritant, p-phenylbenzquinone (PBQ), was administered to mice intraperitoneally at a dose of 5 mg/kg to elicit a stretch-reflex in the animal. The number of stretches in 25 minute period were counted.

[2] = tested on: Female Wistar rats; test: Acute Anti-inflammatory Activity: Carrageenin Test; format: in vivo, rat
Protocol: Female Wistar rats (100-150 g, groups of 5) were starved for approximately 24 hours prior to testing and througout the experimental period. Water was available ad. lib. […] A control group received Celacol alone. Immediately after dosing, each rat received, in a plantar area of the left hind foot, an injection of 0.1 ml of the supernatant of a 30 mg/ml suspension of carrageenin in 0.9% saline. The thickness of the foot was measured with calipers 1 hour and 4 hours after the carrageenin injection. The increases in foot thickness during this time was compared with those of the control group and the percentage reduction in swelling calculated for each tested group.

[3] = tested on: Leukocyte Migration; test: Carrageenin-impregnated sponge inflammatory exudates: leukocyte migration; format: in vivo, rat; conditions: 24 hours
Protocol: (§1) The sponges were removed after 24 hours, immersed in 5 ml herparinised saline and squeezed until dry.

[4] = tested on: Prostaglandin; test: Carrageenin-impregnated sponge inflammatory exudates: prostaglandin concentration; format: in vivo, rat; conditions: 24 hours
Protocol: as §1

[5] = tested on: cyclo-oxygenase and lipoxygenase
[6] = biological target: lipoxygenase; test: Inhibition of Lipoxygenase (enzyme assay, Blackwell and Flower); format: biochemical
[7] = tested on: HETE; test: Production of HETE (enzyme assay, Blackwell and Flower); format: biochemical; conditions: 100 μg/ml
[8] = 30 mins prior to PBQ 5 mg/kg intraperitoneally, stretches in 25 minutes
[9] = rat, oral, suspension in 0.25% Celacol, reduction in foot swelling 1 to 4 hours after carrageenin, read-out: ED50

Structure (SMILES): CC(=O)Oc1ccccc1C(=O)O [Aspirin, reference compound]
- ED50 [1]: 70 mg/kg
- ED50 ([2]; Rattus norvegicus, po, 4 h): 70 mg/kg

Structure (SMILES): C[C@@H]1C[C@H]2[C@@H]3CCC4=CC(=O)C=C[C@]4(C)[C@@]3(F)[C@@H](O)C[C@]2(C)[C@@]1(O)C(=O)CO [Dexamethasone]
- Inhibition of Leukocyte Migration ([3]; 0.1 mg/kg i.m., s.e.m): 62% ± 17
- Inhibition of Leukocyte Migration ([3]; 0.1 mg/kg p.o.): ~ 30%
- Reduction of Prostaglandin Concentration ([4]; 0.1 mg/kg i.m., s.e.m): 64% ± 6
- Reduction of Prostaglandin Concentration ([4]; 0.1 mg/kg p.o.): ~ 30%

Structure (SMILES): NC1=NN(c2cccc(C(F)(F)F)c2)CC1 [Example 1, 3-Amino-1-(m-trifluoromethylphenyl)pyrazol-2-ine]
- inhibition of cyclo-oxygenase and lipoxygenase activity (in words) [5]: equally active in inhibiting cyclo-oxygenase and lipoxygenase activity
- doses at which cyclo-oxygenase and lipoxygenase are inhibited (in words) ([5]; compared with the other heterocyclic compounds of formula (I)): at doses substantially below those of the other heterocyclic compounds of formula (I)
- ED50 [1, 8]: 20.6 mg/kg
- IC50 (lipoxygenase) [6]: 0.72 µg/mL (≈ 3.14 µM)
- reduction of the production of HETE [7]: less than 20%
- Inhibition of Leukocyte Migration ([3]; 50 mg/kg p.o., s.e.m): 73% ± 9
- ED50 [2, 9]: 11 mg/kg

Structure (SMILES): NC1=NN(c2ccc(Cl)cc2)CC1 [Example 6, 3-Amino-1-p-chlorophenyl-2-pyrazoline]
- ED50 [1, 8]: 13 mg/kg
- ED50 [2, 9]: 22 mg/kg

Structure (SMILES): NC1=NN(c2ccccc2)CC1 [Example 7, 3-Amino-1-phenyl-2-pyrazoline]
- ED50 [2, 9]: 60 mg/kg

Structure (SMILES): CC1CC(N)=NN1c1ccc(Cl)cc1.Cl (centres unmarked) [Example 24, 3-Amino-1-p-chlorophenyl-5-methyl-2-pyrazoline hydrochloride]
- ED50 [2, 9]: 36 mg/kg

Structure (SMILES): COc1ccc2c(c1)c(CC(=O)O)c(C)n2C(=O)c1ccc(Cl)cc1 [Indomethacin]
- Inhibition of Leukocyte Migration ([3]; 4 mg/kg p.o., s.e.m): 26% ± 7
- Reduction of Prostaglandin Concentration ([4]; 4 mg/kg p.o.): 98%

Structure (SMILES): CCCCC1C(=O)N(c2ccccc2)N(c2ccccc2)C1=O [Phenylbutazone, reference compound]
- ED50 [2, 9]: 22 mg/kg

Reference: US4556671A, “Pharmaceutical formulations” (Burroughs Wellcome Co., priority 1981, dated 1985)
